Data on eight compounds can be found in US20230265098A1, “ALKYNE QUINAZOLINE DERIVATIVES AS INHIBITORS OF ERBB2” (EnLiven Therapeutics, Inc., priority 2020, published 2023).

Broadly, the IC50 is the concentration at which inhibition is half-maximal.

In experiment [1] the target is T1, phosphorylated ERBB2 (pERBB2) (Homo sapiens, UniProt P04626).
T1 construct: endogenous in cells; host or cells: BT-474
The experiment is described as follows: Detection of phosphorylated ERBB2 (pERBB2) by ELISA in BT-474 cells. Type of experiment: cell-based. Conditions: four hours incubation with compound, OD 450 nm. The method, then:
BT-474 cells were seeded into a 96-well at 2.0*10^4 cells/100 μl/well.
Compounds were dissolved and serially diluted in DMSO. The compounds were then were added, mixed, and incubated for four hours at 37° C., 5% CO2. Compounds were added using four-fold dilutions at final concentrations ranging from 10 μM to 0.01 nM.
Following the four hour incubation with compounds, cell lysates were prepared. Plates were centrifuged for 5 min at 3000 RPM, and supernatant was removed from each well. Cells were washed 3 times by resuspension in 150 μl PBS, followed by centrifugation and removal of the supernatant, as above. […] Cells were incubated with lysis buffer for 1 hour at 4° C., and then stored at −80° C.
Enzyme-linked immunosorbent assays (ELISA) were performed to measure phosphorylated ERBB2 levels. […] The next day, plates were washed with PBS+0.05% Tween20 (PBST). 150 μl of 5% BSA blocking solution was added for 1 hour at room temperature, with shaking. Plates were washed with PBST. Cell lysates were thawed and 100 μl of lysate was added to the ELISA plate. The plates were incubated for 2 hours at room temperature, with shaking. […] Plates were incubated for 1 hour at room temperature, with shaking. Plates were then washed with PBST, and 100 μl TMB substrate solution (R&D Systems, cat #DY999) was added. Plate were incubated in the dark for 20 minutes at room temperature. 50 μl of Stop solution (R&D Systems, cat #DY994) (50 μl) was added to each well and mixed.
Optical density at 450 nm was read on an EnSpire plate reader (Perkin Elmer). The remaining kinase activity by calculated using the following formula: % Relative activity=100×(A450sample−A450LC)/(A450HC−A450LC). The low and high control values (“LC” and “HC”) were generated from lysate from wells without cells or with cells treated with 0.1% DMSO, respectively.
Background: An ELISA detects its analyte on a solid surface through an enzyme-linked reagent.

The target of experiment [2] is T2, phosphorylated EGFR (pEGFR) (Homo sapiens, UniProt P00533).
T2 construct: endogenous in cells; host or cells: A431
The experiment is described as follows: Detection of phosphorylated EGFR (pEGFR) in EGF-stimulated A431 cells (AlphaLISA). In kind it is cell-based. The conditions noted are these: A431 cells (10% FBS), 4 hours with compound, then EGF 30 ng/mL for 10 minutes. The method, then:
Enzyme-linked immunosorbent assays (ELISA) were performed to measure phosphorylated EGFR levels using A431 cells (10% FBS). A431 (1.0*10^4 cells/40 μl/well) cells were seeded in 384 well. Compounds were dissolved in DMSO, serially diluted in DMSO and then were added, mixed, and incubated for 4 hours at 37° C., 5% CO2. Following the 4-hours incubation, cells were stimulated for 10 minutes with EGF (Invitrogen, cat #PHG0311) at a final concentration of 30 ng/mL in the incubator. The media was aspirated and cells were lysed in 10 μL lysis buffer with protease and phosphatase inhibitors (PerkinElmer, cat #ALSU-PEGFR-A50K). The plates were placed on a shaker for 5 minutes and then incubated for 30 min at 4° C. for complete lysis. The lysate was transferred to an Optiplate (Perkin Elmer, cat #6007290).
Acceptor mix (PerkinElmer, cat #ALSU-PEGFR-A50K) was prepared just before use and 5 μL was dispensed to all the wells, followed by a 1.5-2 h incubation at room temperature in dark. The donor mix (PerkinElmer, cat #ALSU-PEGFR-A50K) was prepared under low light conditions prior to use and […] of donor mix was added to all the wells under subdued lighting or green filters. The plates were placed on a shaker for 5 min, sealed, and incubated overnight at room temperature in dark. Plates were read on the Envision (PerkinElmer) using standard AlphaLISA settings.
The percentage of inhibition on EGFR phosphorylation was calculated following equation: % Inhibition=100×(LumHC−LumSample)/(LumHC−LumLC). The low and high controls (LC/HC) are generated from lysate from wells with cells treated with DMSO or […] Staurosporine (BioAustralis, cat #BIA-S1086), […]. IC50 values were calculated by fitting the Curve using XLfit (v5.3.1.3), equation 201: Y=Bottom+(Top−Bottom)/(1+10^((LogIC50−X)*HillSlope)).
Background: In Alpha technology, singlet oxygen from a donor bead excites a nearby acceptor bead.

Where a name gives a salt, the structure may show the parent alone.

T2 sequence (P00533 25-1210): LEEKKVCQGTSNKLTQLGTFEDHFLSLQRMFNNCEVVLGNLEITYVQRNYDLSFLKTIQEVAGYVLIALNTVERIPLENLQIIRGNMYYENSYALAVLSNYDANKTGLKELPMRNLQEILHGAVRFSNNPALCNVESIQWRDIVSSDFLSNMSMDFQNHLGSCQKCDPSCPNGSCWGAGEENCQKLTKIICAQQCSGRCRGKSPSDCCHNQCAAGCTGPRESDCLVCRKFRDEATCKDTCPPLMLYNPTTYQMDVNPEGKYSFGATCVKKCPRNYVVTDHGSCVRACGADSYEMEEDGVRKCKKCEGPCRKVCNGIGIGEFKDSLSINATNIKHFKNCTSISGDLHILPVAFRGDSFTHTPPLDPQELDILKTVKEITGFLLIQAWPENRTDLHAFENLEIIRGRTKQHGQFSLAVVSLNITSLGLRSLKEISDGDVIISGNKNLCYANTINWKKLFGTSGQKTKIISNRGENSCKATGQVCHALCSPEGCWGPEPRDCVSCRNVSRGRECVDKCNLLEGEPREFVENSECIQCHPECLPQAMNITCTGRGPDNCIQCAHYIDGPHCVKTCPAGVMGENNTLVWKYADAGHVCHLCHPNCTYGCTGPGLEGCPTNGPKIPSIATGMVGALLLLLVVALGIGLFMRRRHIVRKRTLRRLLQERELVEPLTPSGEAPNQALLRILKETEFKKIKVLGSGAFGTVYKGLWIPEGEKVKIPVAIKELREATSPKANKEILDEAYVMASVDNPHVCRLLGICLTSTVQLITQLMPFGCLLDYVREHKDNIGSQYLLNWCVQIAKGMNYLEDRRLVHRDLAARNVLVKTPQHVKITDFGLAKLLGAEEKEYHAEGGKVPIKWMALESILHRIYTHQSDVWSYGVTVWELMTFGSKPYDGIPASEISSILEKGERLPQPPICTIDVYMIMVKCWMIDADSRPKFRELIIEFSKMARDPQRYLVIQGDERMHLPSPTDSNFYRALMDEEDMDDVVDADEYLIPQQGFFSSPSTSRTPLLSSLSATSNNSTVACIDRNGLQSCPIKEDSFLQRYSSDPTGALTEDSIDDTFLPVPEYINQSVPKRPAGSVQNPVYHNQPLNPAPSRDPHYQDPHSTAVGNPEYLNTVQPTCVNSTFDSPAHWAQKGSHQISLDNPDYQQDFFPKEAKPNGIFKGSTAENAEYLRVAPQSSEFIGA
T1 sequence (P04626 23-1255): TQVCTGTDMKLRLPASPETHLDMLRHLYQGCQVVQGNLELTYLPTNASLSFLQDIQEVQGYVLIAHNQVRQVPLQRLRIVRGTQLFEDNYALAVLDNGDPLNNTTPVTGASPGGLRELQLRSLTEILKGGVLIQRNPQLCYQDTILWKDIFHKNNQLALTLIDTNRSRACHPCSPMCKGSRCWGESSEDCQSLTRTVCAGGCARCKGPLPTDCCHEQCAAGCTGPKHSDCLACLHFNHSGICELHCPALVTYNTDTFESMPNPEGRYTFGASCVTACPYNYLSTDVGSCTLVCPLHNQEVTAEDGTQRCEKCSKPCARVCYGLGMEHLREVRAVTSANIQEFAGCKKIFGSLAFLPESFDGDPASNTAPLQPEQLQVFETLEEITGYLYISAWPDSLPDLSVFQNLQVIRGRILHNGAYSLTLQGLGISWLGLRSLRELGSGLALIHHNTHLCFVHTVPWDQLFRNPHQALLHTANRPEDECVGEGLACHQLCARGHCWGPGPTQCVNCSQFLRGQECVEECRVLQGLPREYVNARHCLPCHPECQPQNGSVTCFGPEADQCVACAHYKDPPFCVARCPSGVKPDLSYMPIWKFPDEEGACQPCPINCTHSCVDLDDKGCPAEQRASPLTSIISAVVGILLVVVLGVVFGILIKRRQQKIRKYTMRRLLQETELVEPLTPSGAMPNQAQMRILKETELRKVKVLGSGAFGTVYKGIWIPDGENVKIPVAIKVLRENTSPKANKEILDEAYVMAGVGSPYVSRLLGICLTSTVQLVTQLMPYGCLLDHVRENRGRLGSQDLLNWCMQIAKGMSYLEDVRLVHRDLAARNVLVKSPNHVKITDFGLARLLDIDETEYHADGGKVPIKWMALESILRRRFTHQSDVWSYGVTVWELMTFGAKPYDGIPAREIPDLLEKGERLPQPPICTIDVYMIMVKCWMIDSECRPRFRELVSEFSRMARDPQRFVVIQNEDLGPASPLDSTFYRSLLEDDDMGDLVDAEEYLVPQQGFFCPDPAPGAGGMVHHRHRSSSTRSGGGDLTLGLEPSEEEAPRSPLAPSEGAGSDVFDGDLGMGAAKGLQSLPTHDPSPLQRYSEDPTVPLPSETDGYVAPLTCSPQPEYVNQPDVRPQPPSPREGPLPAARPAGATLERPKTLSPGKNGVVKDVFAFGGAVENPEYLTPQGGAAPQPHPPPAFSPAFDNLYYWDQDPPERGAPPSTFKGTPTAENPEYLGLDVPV

Regarding `CC#CC(=O)Nc1cc2c(Nc3cc(C)c(Oc4ccn5ncnc5c4)cc3F)ncnc2cc1OCCN(C)C` [Compound 182, N-{7-[2-(dimethylamino)ethoxy]-4-[(2-fluoro-5-methyl-4-{[1,2,4]triazolo[1,5-a]pyridin-7-yloxy}phenyl)amino]quinazolin-6-yl}but-2-ynamide], the concentration for half-maximal inhibition (IC50) was 0.0132 µM in experiment [1] and 1.49 µM in experiment [2].
`Cc1cc(Nc2ncnc3cc(OCCN(C)C)c(NC(=O)C#CC4CC4)cc23)c(F)cc1Oc1ccn2ncnc2c1` [Compound 181, N-(4-(4-([1,2,4]triazolo[1,5-a]pyridin-7-yloxy)-2-fluoro-5-methylphenylamino)-7-(2-(dimethylamino)ethoxy)quinazolin-6-yl)-3-cyclopropylpropiolamide formate]: the IC50 in experiment [1] was 0.0228 µM; in experiment [2] it was 0.971 µM.
`CC#CC(=O)Nc1cc2c(Nc3ccc(Oc4ccc(C)nc4)c(C)c3)ncnc2cc1OCCN(C)C` [Compound 186, N-{7-[2-(dimethylamino)ethoxy]-4-({3-methyl-4-[(6-methylpyridin-3-yl)oxy]phenyl}amino)quinazolin-6-yl}but-2-ynamide]: the 50% inhibitory concentration (IC50) in experiment [1] was 0.0161 µM; in experiment [2], 0.0745 µM.
`Cc1c(Oc2ccn3ncnc3c2)ccc(Nc2ncnc3cc(OCCN(C)C)c(NC(=O)C#CC4CC4)cc23)c1F` [Compound 179, N-(4-((4-([1,2,4]triazolo[1,5-a]pyridin-7-yloxy)-2-fluoro-3-methylphenyl)amino)-7-(2-(dimethylamino)ethoxy)quinazolin-6-yl)-3-cyclopropylpropiolamide]: the half-maximal inhibitory concentration (IC50) came to 0.121 µM in experiment [1] and 2.55 µM in experiment [2].
Consider `CC#CC(=O)Nc1cc2c(Nc3cc(Cl)c(Oc4ccn5ncnc5c4)cc3F)ncnc2cc1OCCN(C)C` [Compound 197, N-(4-((4-([1,2,4]triazolo[1,5-a]pyridin-7-yloxy)-5-chloro-2-fluorophenyl)amino)-7-(2-(dimethylamino)ethoxy)quinazolin-6-yl)but-2-ynamide], for which the IC50 in experiment [1] was determined as 0.0114 µM; in experiment [2], 0.555 µM.
For the compound `Cc1cc(Nc2ncnc3ccc(NC(=O)C#CC4CC4)cc23)ccc1Oc1ccc([C@@H](F)CF)nc1` [Compound 188, (R)-3-cyclopropyl-N-(4-((4-((6-(1,2-difluoroethyl)pyridin-3-yl)oxy)-3-methylphenyl)amino)quinazolin-6-yl)propiolamide], the half-maximal inhibitory concentration (IC50) was 0.078 µM in experiment [1] and 0.297 µM in experiment [2].
`CC#CC(=O)Nc1cc2c(Nc3ccc(Oc4ccn5ncnc5c4)c(C)c3F)ncnc2cc1OCCN(C)C` [Compound 180, N-(4-((4-([1,2,4]triazolo[1,5-a]pyridin-7-yloxy)-2-fluoro-3-methylphenyl)amino)-7-(2-(dimethylamino)ethoxy)quinazolin-6-yl)but-2-ynamide]: the 50% inhibitory concentration (IC50) worked out at 0.0234 µM in experiment [1] and 1.59 µM in experiment [2].
As for `Cc1cc(Nc2ncnc3cc(OCCN(C)C)c(NC(=O)C#CC4CC4)cc23)ccc1Oc1ccn2ncnc2c1` [Compound 170, 3-cyclopropyl-N-{7-[2-(dimethylamino)ethoxy]-4-[(3-methyl-4-{[1,2,4]triazolo[1,5-a]pyridin-7-yloxy}phenyl)amino]quinazolin-6-yl}prop-2-ynamide hydrochloride], the half-inhibitory concentration (IC50) in experiment [1] is 0.014 µM; in experiment [2] it was 0.418 µM.
